In patent publication US4378366A, “2-[Trifluoroethylamine]oxazolines” (Science Union et Cie, priority 1978, dated 1983):

Experiment: solubility in dilute aqueous hydrochloric acid
Format: physicochemical
Conditions: dilute or N/10 aqueous hydrochloric acid; hydrochloride formed
With `CC(NC1=NCCO1)C(F)(F)F` (racemic) [I, dl 2-(α-trifluoromethylethylamino)oxazoline] the “solubility in hydrochloric acid solution” value was “soluble in the dilute aqueous solutions of hydrochloric acid”. With `FC(F)(F)C(NC1=NCCO1)C1CC1` (racemic) [II, dl 2-[(1-trifluoromethyl 1-cyclopropyl)methylamino]oxazoline] the “solubility in hydrochloric acid solution” value was “easily soluble in an aqueous solution of the just calculated amount of N/10 hydrochloric acid”. With `CC(C)CC(NC1=NCCO1)C(F)(F)F` (racemic) [III, dl 2-(1-trifluoromethyl 3-methylbutylamino)oxazoline] the “solubility in hydrochloric acid solution” value was “soluble in dilute hydrochloric acid”. For `FC(F)(F)C(F)(F)C(NC1=NCCO1)C1CCCCC1` (racemic) [X, dl 2-[(1-pentafluoroethyl 1-cyclohexyl)methylamino]oxazoline], the “solubility in hydrochloric acid solution” value was “soluble in N/10 hydrochloric acid solutions”. In the case of `FC(F)(F)C(NC1=NCCO1)C1CCCCC1` (single isomer, unassigned) [IV, 2-[(1-trifluoromethyl 1-cyclohexyl)methylamino]oxazoline (dextrorotatory isomer)], the “solubility in hydrochloric acid solution” value was “soluble in dilute hydrochloric acid”. In the case of `FC(F)(F)C(NC1=NCCCN1)C1CCCCC1` (single isomer, unassigned) [XI, 2-[(1-trifluoromethyl 1-cyclohexyl)methylamino]tetrahydropyrimidine (laevorotatory isomer)], the “solubility in hydrochloric acid solution” value was “soluble in N/10 hydrochloric acid solutions”.
